Assay results reported in US6825223B2, “Anilide compounds and pharmaceutical compositions comprising them” (Kowa Company, Ltd., priority 1996, dated 2004).

Experiments:
[1] = molecular target: T1, ACAT (small intestine-derived enzyme) (Oryctolagus cuniculus, UniProt G1SFD9); test: ACAT inhibiting activity, small intestine-derived enzyme liquid; type: biochemical, rabbit; details: small intestines of rabbits fed ordinary feed; 14C-oleoyl-CoA; 37° C. 3 minutes
T1 sequence (G1SFD9 1-524): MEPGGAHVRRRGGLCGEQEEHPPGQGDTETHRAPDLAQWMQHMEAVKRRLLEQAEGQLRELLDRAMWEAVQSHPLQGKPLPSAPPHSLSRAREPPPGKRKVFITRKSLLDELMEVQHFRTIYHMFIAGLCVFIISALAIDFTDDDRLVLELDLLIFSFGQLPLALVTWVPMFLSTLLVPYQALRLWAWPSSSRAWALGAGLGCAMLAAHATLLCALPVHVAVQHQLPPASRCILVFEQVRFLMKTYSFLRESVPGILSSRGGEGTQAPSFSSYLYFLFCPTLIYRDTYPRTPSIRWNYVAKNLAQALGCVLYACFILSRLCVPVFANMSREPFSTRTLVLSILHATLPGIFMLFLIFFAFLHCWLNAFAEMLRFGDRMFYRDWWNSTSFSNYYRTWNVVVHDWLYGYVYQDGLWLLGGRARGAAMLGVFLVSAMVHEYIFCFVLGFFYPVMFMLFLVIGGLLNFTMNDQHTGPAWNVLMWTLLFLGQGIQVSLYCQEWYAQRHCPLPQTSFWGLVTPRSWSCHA
Description: (§1) Rabbits were fed with 1% cholesterol feed for 8 weeks. Microsomes were prepared from the thoracoaorta of the rabbits in an ordinary manner, and suspended in 0.15 M phosphate buffer (pH 7.4) to prepare blood vessel wall-derived enzyme liquids, Small intestine-derived enzyme liquids were prepared from the small intestines of rabbits fed with ordinary feed. […] 10 μl of the enzyme liquid was added to the resulting solution and reacted at 37° C. for 5 minutes (for small intestine-derived enzyme liquids, for 3 minutes), and thereafter 3 ml of chloroform/methanol (2/1) and 0.5 ml of 0.04 N HCl were added thereto to stop the reaction. After the reaction, lipids were extracted from the reaction mixtures. The solvent layer was concentrated to dryness, then dissolved in hexane, spotted on a TLC plate (produced by Merck), and developed thereon with a developer of hexane/ether/acetic acid (75/25/1) The radioactivity of the thus-fractionated cholesterol ester fraction was measured with BAS2000 (produced by Fuji Film).

ACAT in J774 cell = molecular target: T2, ACAT in J774 cell (Mus musculus, UniProt Q61263); test: ACAT inhibiting activity in J774 cell (anti-foaming activity); type: cell-based; details: for IC50 (HepG 2)/IC50 (J 774): ratio of the two cell IC50 values; for IC50: J774 cell, 10 μg/ml 25-OH cholesterol, 18 hours, cholesterol ester per protein, read-out: J 774 Cell-Derived Enzyme IC50
T2 construct: endogenous in cells; host or cells: J774 cells
T2 sequence (Q61263 1-540): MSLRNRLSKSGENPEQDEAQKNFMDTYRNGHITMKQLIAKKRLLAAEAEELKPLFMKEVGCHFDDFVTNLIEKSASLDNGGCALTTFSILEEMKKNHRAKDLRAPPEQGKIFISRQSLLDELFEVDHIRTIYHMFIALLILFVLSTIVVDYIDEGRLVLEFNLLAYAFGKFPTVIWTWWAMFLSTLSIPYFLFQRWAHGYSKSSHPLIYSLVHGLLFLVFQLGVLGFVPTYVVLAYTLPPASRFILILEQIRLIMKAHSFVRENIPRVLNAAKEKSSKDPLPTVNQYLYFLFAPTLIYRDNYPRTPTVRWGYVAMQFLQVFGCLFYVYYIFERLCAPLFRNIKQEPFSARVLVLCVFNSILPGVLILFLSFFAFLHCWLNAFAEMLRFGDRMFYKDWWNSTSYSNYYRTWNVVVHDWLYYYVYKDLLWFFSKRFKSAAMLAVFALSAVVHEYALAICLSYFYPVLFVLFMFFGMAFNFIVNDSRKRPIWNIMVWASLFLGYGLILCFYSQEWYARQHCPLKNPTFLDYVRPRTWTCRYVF
Description: (§2) ACAT inhibiting activities in J774 cell and HepG2 cell (Anti-foaming activities).
(§3) J774 cell and HepG2 cell were sown on 24-holes-plates, and J774 cell was cultured with DMEM culturing solution (including 10% fetal bovine serum) and HepG2 cell was cultured with MEM culturing solution (including 10% fatal bovine serum) and they were incubated with 5% CO2 at 37° C. for 24 hours. […] After redwing the medium, each cultured cell was washed with PBS two ties, and then extracted with 1.5 ml of hexane:iso-propanol (3:2), and concentrated and dried. Each extracted substance was dissolved into iso-propanol including 0.2 ml of 10% Triton X-100. And total cholesterol (TC) of each was measured with Cholesterol E Test Wako (Wako Junyaku Co.), and free cholesterol […] of each was measured with Free Cholesterol E Test Wako (Wako Junyaku Co.). The residue of extracting was dissolved with 0.25 ml of 2N NaOH at 37° C. for 30 minutes, and an amount of protein was measured with BCA Protein Assay Reagent (Pierce). The amount of cholesterol ester per protein was calculated based on a difference between TC and FC, and IC50 was calculated in contrast with control.

ACAT in HepG2 cell = test: ACAT inhibiting activity in HepG2 cell; type: cell-based; details: 10 μg/ml 25-OH cholesterol, 18 hours, cholesterol ester per protein, read-out: HepG 2-Derived Enzyme IC50
Description: as §2, §3

[2] = molecular target: ACAT (blood vessel wall-derived enzyme) (Oryctolagus cuniculus, UniProt G1SUQ0); test: ACAT inhibiting activity, blood vessel wall-derived enzyme liquid (thoracoaorta microsomes); type: biochemical, rabbit; details: microsomes from thoracoaorta of rabbits fed 1% cholesterol feed; 14C-oleoyl-CoA; 37° C. 5 minutes
Description: as §1

[3] = Deterioration action of cholesterol in plasma, F1B hamster on hyperfat foods; type: in vivo, BIO F1B hybrid syrian hamster; details: for inhibiting an increase (%): 4th week, against hyperfat and ordinal foods groups; for Total Cholestrol in Plasma, At the 4th Week: fed 4 weeks
Description: A deterioration action of cholesterol in plasma was tested with BIO F1B hybrid syrian hamster (Mark C. K. et al., Atheorosclerosis, 91 (1991) 35-49: abbreviated as FIB hamster in the following) which has an accumulation of Cholesterol in blood vessel by cholesterol load. That is 4 groups of FIB hamster (male, 8 weeks old, about 100 g weight) were made, which had five hamsters respectively, and the hamsters were fed with the below-described feeds corresponding to each group for 4 weeks. At the 4th week from beginning feed, blood of the hamsters were drawn from their jugulars; and values of total cholesterols in plasma were measured with the enzyme method.

[4] = group (3): 0.03% compound added to hyperfat foods
[5] = group (4): 0.3% compound added to hyperfat foods

Chain of ACAT (blood vessel wall-derived enzyme) (G1SUQ0 entry or part of it): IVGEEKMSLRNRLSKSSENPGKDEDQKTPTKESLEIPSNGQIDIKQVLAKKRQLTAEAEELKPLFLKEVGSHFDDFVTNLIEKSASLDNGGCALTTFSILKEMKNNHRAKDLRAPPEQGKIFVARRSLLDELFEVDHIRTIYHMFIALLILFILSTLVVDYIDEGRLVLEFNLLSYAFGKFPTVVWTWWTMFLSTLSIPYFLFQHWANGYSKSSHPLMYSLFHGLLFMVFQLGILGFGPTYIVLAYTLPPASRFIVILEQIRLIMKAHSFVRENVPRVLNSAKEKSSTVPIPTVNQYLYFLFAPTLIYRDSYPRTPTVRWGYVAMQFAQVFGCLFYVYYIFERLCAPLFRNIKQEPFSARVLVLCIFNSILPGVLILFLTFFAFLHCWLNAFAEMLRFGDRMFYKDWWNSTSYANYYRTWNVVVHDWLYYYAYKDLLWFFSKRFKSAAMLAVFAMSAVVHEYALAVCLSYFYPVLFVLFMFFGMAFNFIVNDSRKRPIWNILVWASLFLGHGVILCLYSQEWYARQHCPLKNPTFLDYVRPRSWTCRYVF

Row | Compound | IC50 [1] [nM] | IC50 (HepG 2)/IC50 (J 774) (ACAT in J774 cell) | IC50 (ACAT in J774 cell) [nM] | IC50 (ACAT in HepG2 cell) [nM] | further results
1 | CC(C)c1cccc(C(C)C)c1NC(=O)C(C)(C)CCCOc1ccc2c(c1)C=C(c1nccn1C)C(CCc1ccc(F)cc1)O2 (stereo not shown) [Control (1), 5-[2-(2-(4-fluorophenyl)ethyl)-3-(1-methyl-1H-imidazol-2-yl) -2H-benzopyran-6-yl]oxy-2,2-dimethyl-N-(2,6-diisopropylphenyl)pentanamide, reference compound] | 870 | 9.46 | – | – | –
2 | CCCCCCCCCCCCCCSCC(=O)Nc1c(C(C)C)cccc1C(C)C [Control (2), N-(2,6-diisopropylphenyl) -2-(tetradecylthio)acetamide, reference compound] | – | – | 150 | 1400 | –
3 | CCCCCCCN(CCCCCSc1nc(-c2ccccc2)c(-c2ccccc2)[nH]1)c1nc2ccccc2o1 [Control (4), N4-[5-(4,5-diphenyl-1H-imidazol-2-ylthio)pentyl]-N-heptyl-2-benzoxazolamine, reference compound] | 37 | 6.26 | 120 | – | IC50 [2]: 26 nM
4 | CC(C)c1cccc(C(C)C)c1NC(=O)CSc1nc2ccccc2o1 [Example 1, 2-(benzoxazol-2-ylthio)-N-(2,6-diisopropylphenyl)acetamide] | – | 0.83 | 1200 | 1000 | –
5 | CC(C)c1cccc(C(C)C)c1NC(=O)CCCCCCCCSc1nc2ccccc2o1 [Example 8, 9-(benzoxazol-2-ylthio)-N-(2,6-diisopropylphenyl)nonanamide] | – | – | – | – | inhibiting an increase (%) [3, 4]: 80.5%; Total Cholestrol in Plasma, Before Dosage [3, 4]: 155.5 ± 10.1 mg/dL; Total Cholestrol in Plasma, At the 4th Week [3, 4]: 398.3 ± 64.3 mg/dL; inhibiting an increase (%) [3, 5]: 111.7%; Total Cholestrol in Plasma, Before Dosage [3, 5]: 164.3 ± 8.8 mg/dL; Total Cholestrol in Plasma, At the 4th Week [3, 5]: 170.1 ± 18.5 mg/dL

Now from value to compound, other results behind:

Row | IC50 [1] [nM] | IC50 (HepG 2)/IC50 (J 774) (ACAT in J774 cell) | IC50 (ACAT in J774 cell) [nM] | IC50 (ACAT in HepG2 cell) [nM] | Compound | further results
6 | – | 2.55 | 470 | 1200 | CC(C)c1cccc(C(C)C)c1NC(=O)CCSc1nc2ccccc2o1 [Example 2, 3-(benzoxazol-2-ylthio)-N-(2,6-diisopropylphenyl)propanamide] | –
7 | 65 | – | – | – | CC(C)c1cccc(C(C)C)c1NC(=O)CCCCCSc1nc2ccccc2o1 [Example 5, 6-(benzoxazol-2-ylthio)-N-(2,6-diisopropylphenyl)hexanamide] | IC50 [2]: 10 nM
8 | – | 6.45 | 2200 | 12000 | CC(C)c1cccc(C(C)C)c1NC(=O)CSc1nc2ccccc2[nH]1 [Example 23, 2-(benzimidazol-2-ylthio)-N-(2,6-diisopropylphenyl)acetamide] | –
9 | – | 0.38 | 5600 | 2100 | CC(C)c1cccc(C(C)C)c1NC(=O)CCCSc1nc2ccccc2s1 [Example 44, 4-(benzothiazol-2-ylthio)-N-(2,6-diisopropylphenyl)butanamide] | –
